The target of assay [1] is T1, CAM α1b-adrenoceptor/GFP fusion protein (Mesocricetus auratus, UniProt P18841, A293L/K290H/R288K).
T1 construct: expressed in transfected cells
T1 sequence (P18841 1-515 R288K/K290H/A293L): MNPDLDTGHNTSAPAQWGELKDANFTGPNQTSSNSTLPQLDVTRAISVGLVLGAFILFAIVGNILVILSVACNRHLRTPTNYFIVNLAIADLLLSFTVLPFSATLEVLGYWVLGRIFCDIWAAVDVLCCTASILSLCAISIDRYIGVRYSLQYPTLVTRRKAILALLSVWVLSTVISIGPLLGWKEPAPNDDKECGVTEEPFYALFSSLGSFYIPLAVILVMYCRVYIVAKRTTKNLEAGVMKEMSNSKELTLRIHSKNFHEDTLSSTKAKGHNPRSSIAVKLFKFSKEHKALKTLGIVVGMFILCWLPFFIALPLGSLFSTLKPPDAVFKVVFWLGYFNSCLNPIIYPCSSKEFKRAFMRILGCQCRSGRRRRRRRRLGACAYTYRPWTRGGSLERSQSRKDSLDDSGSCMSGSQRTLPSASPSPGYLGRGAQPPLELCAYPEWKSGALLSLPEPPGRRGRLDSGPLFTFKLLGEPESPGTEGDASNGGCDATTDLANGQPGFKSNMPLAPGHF
As to the kind of experiment: Plate fluorimetry, CAM α1b-adrenoceptor/GFP in HEK 293 cells. It counts as cell-based, hamster. To be noted: 22 hrs treatment, range in brackets, read-out: EC50 of up-regulation of fluorescence of CAM α1b-adrenoceptor/GFP. As to the method:
These cell lines were used to investigate ligand up-regulation of the CAM α1b-adrenoceptor/GFP fusion protein. Fusion protein upregulation was measured according to a gain in total cellular fluorescence in a plate based fluorimeter.
For experiments cells were seeded into black 96 well view plates (Costar) on the day before assay. […] Cells were incubated at 37° C. for 22 hours. After incubation fluorescence was detected using a Tecan Spectrafluor plus fluorimeter. To control for plate and media autofluorescence results were calculated by subtracting a blank plate reading from the fluorescence values obtained in drug treated cells.
The time course of ligand up-regulation of the CAM α1b-adrenoceptor/GFP fusion protein was also investigated. In this study cells were seeded and treated with drug as previously described but fluorescence in the blank plate and the cell plates were read at various time points between 2–31 hours after drug addition.

Assay [2] has as its target T2, wild type hamster α1b-adrenoceptor/GFP fusion construct (Mesocricetus auratus, UniProt P18841).
T2 construct: expressed in transfected cells
T2 sequence (P18841 1-515): T1 sequence (P18841 1-515 R288K/K290H/A293L) with K288R, H290K, L293A
As to the kind of experiment: Confocal microscopy, wild type α1b-adrenoceptor-GFP. The assay is classed as cell-based. To be noted: 1 μM for 24h. The method, then: (§1) Cells expressing either the 3CAM (10A) or wild type (10B) hamster α1b-adrenoceptor grown on glass cover slips were treated with vehicle (a), phentolamine (b), WB4101 (c) or HV723 (d) (all at 1 μM) for 24h. The cells were then visualised on a confocal microscope.
(§2) The images were manipulated with Zeiss LSM or MetaMorph software. Two different protocols for preparation of cells were used. When examining the time course of internalisation and recycling live cells were used. Cells were grown on glass coverslips and mounted on the imaging chamber. Cells were maintained in KRH buffer (see below) and temperature was maintained at 37° C. In other studies fixed cells were used. Cells on glass coverslips were washed with PBS and fixed for 20 min at room temperature using 4% paraformaldehyde in PBS/5% sucrose pH 7.2. After one wash with PBS coverslips were mounted on microscope slides with 40% glycerol in PBS.
(§3) In the first step the coding sequence of a modified form of GFP was modified by polymerase chain reaction (PCR) amplification. Using the amino-terminal primer 5′-[…]-3 the initiating Met of GFP was removed and both a Kpn I restriction site (underlined) and a 2-amino acid spacer (Gly-Asn) were introduced. Using the carboxy-terminal primer 5-[…]-3′ an Xba I restriction site (underlined) was introduced downstream of the stop codon of GFP. The amplified fragment of GFP digested with Kpn I and Xba I was subcloned into similarly digested pcDNA3 expression vector (Invitrogen). To obtain the α1B-adrenoceptor-GFP fusion proteins, the coding sequence of each form of the α1B-adrenoceptor was amplified by PCR. Using the amino-terminal primer 5′-[…]-3′, a Kpn I restriction site (underlined) was introduced upstream of the initiator Met. […] Finally, the GFP construct in pcDNA3 was digested with Kpn I and ligated together with the PCR product of the α1B-adrenoceptor amplification also digested with Kpn I. The open reading frames so produced represent the coding sequence of either the wild type or 3CAM α1B-adrenoceptor-GFPs. […]

In assay [3] the target is T3, 3CAM hamster α1b-adrenoceptor/GFP fusion construct (Mesocricetus auratus, UniProt P18841, A293L/K290H/R288K).
T3 construct: expressed in transfected cells
T3 sequence (P18841 1-515 R288K/K290H/A293L): T1 sequence (P18841 1-515 R288K/K290H/A293L)
As to the kind of experiment: Confocal microscopy, 3CAM α1b-adrenoceptor-GFP. It counts as cell-based. As to conditions: 1 μM for 24h. The method, then:
as §1, §2, §3

The target of another assay is T4, CAM β2-adrenoceptor-GFP (Homo sapiens, UniProt P07550, H269K/K267R/L266S/L272A).
T4 construct: GFP (modified form, Zernicka-Goetz et al. 1997); expressed in transfected cells
As to the kind of experiment: Confocal microscopy of CAM β2-adrenoceptor-GFP in HEK293 cells. The assay is classed as cell-based. As to conditions: 24h, 10^−5 M.

For assay [4], the target named is T5, wild-type α1b-adrenoceptor (Mesocricetus auratus, UniProt P18841).
T5 construct: expressed in transfected cells
T5 sequence (P18841 1-515): T1 sequence (P18841 1-515 R288K/K290H/A293L) with K288R, H290K, L293A
As to the kind of experiment: [3H]prazosin specific binding to membranes after ligand treatment, wild type. To be noted: FIG. 10C; [3H]prazosin 2 nM. It counts as cell-based, hamster. As to the method: (§4) Equivalent studies were performed on plates of cells which were then washed and harvested. Membranes were prepared and the specific binding capacity of a single concentration (2 nM) of [^3H]prazosin was then assessed (FIG. 10C).
(§5) HEK293 cells stably expressing each of the α1B-adrenoceptor-GFP fusion proteins were grown to confluence on 6 cm dishes. Prior to harvesting, cells were washed twice with 4 ml of ice-cold TE buffer (10 mM Tris, 0.1 mM EDTA pH 7.5) and then scraped into 1 ml of the same buffer. […] The suspension was centrifuged at 16000×g for 15 min and the resulting pellets resuspended in ice-cold TE buffer to final protein concentrations of 0.035–0.16 mg/ml.

A further assay addresses T6, 3CAM α1b-adrenoceptor (Mesocricetus auratus, UniProt P18841, A293L/K290H/R288K).
T6 construct: expressed in transfected cells
T6 sequence (P18841 1-515 R288K/K290H/A293L): T1 sequence (P18841 1-515 R288K/K290H/A293L)
Briefly: [3H]prazosin specific binding to membranes after ligand treatment, 3CAM. It counts as cell-based, hamster. As to conditions: FIG. 10C; [3H]prazosin 2 nM. As to the method:
as §4, §5

Assay [5] deals with T7, PAR1mut/GFP fusion protein (Homo sapiens, UniProt P25116, A405G/G401A/L403A/M404G/N398G/Q402G/S399A/S400G/S406A/Y397A).
T7 construct: expressed in transfected cells
T7 sequence (P25116 22-425 Y397A/N398G/S399A/S400G/G401A/Q402G/L403A/M404G/A405G/S406A): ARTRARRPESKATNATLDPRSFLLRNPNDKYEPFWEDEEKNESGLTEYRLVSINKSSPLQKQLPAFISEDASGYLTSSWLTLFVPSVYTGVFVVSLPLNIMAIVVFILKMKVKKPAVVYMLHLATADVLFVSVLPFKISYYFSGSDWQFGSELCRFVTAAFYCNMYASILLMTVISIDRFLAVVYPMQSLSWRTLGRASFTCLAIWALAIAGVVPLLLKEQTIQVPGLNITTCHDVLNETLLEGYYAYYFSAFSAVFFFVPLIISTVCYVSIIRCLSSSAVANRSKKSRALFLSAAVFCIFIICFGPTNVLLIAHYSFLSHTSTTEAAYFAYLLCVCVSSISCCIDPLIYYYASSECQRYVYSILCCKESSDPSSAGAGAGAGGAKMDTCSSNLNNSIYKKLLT
As to the kind of experiment: Agonist mediated down-regulation of PAR1mut/GFP in plate fluorimeter. The assay is classed as cell-based. To be noted: 4 hours incubation. As to the method:
PAR1 receptor internalisation occurs through two mechanisms. […] This […] in the wild type receptor with the sequence […] (Shapiro and Coughlin, 1998). […] Cells were seeded into black 96 well view plates (Costar) the day before the experiment. The growth media was replaced with phenol red free DMEM/F12 (1:1) media containing 2 mM L-glutamine and either TRAP (10 μM-1 nM) or thrombin (1-0.0001 units/ml). The media also contained 0.5 mM Brilliant Black dye to absorb any media associated autofluorescence. […] To control for plate and media autofluorescence results were calculated by subtracting a blank plate reading from the fluorescence values obtained in drug treated cells.

Changes are numbered by the printed parent chain.

The results in this text go back to US7101677B1, “Receptor assay” (University Court of the University of Glasgow, priority 1999, dated 2006).

In the case of `CCC(C#N)(CCCNCCOc1ccccc1OC)c1cc(OC)c(OC)c(OC)c1` (stereo not drawn) [HV 723], the EC50 in assay [1] worked out at 417 nM. For the same compound, the “upregulation of wild type α1b-adrenoceptor/GFP (confocal)” value in assay [2] is listed as “not wild type”. Moreover, the “upregulation of fluorescence of 3CAM α1b-adrenoceptor/GFP (confocal)” value in assay [3] is listed as “Upregulation of the 3CAM”.
For `COc1cccc(OC)c1OCCNCC1COc2ccccc2O1` (stereo not drawn) [WB 4101] the same measures were 676 nM, “not wild type” and “Upregulation of the 3CAM”.
On to `CCCc1ccccc1OCC(O)CNC(C)C` (stereo not drawn) [dihydroalprenolol], for which, on CAM β2-adrenoceptor-GFP, the “upregulation of fluorescence of CAM β2-adrenoceptor-GFP (confocal)” value is “Upregulation of fluoresence”.
Regarding `Cc1ccc(N(CC2=NCCN2)c2cccc(O)c2)cc1` [phentolamine], the EC50 in assay [1] turned out to be 170 nM. Moreover, the “upregulation of wild type α1b-adrenoceptor/GFP (confocal)” value in assay [2] is “not wild type”. In addition, the “upregulation of fluorescence of 3CAM α1b-adrenoceptor/GFP (confocal)” value in assay [3] is “Upregulation of the 3CAM”.
For the compound `COc1cc2nc(N3CCN(C(=O)c4ccco4)CC3)nc(N)c2cc1OC` [prazosin], the “effect on wild-type α1b-adrenoceptor level ([3H]prazosin specific binding)” value in assay [4] is given as “no effect”. Moreover, on CAM β2-adrenoceptor-GFP, the “upregulation of fluorescence of CAM β2-adrenoceptor-GFP (confocal)” value is “not recorded”. In addition, the “effect on 3CAM α1b-adrenoceptor level ([3H]prazosin specific binding)” value at 3CAM α1b-adrenoceptor is “upregulation”.
With `COC(=O)[C@@H]1[C@H]2C[C@H]3c4[nH]c5ccccc5c4CCN3C[C@@H]2CC[C@@H]1O` [yohimbine], at CAM β2-adrenoceptor-GFP, the “upregulation of fluorescence of CAM β2-adrenoceptor-GFP (confocal)” value is given as “not recorded”.
As to thrombin, the “maximum decrease (loss) in fluorescence of PAR1 mut/GFP construct” value in assay [5] is on record as “about 5%”.
